Experimental data from the NIST ThermoML archive (doi:10.1016/j.jct.2006.03.018).

Experiments:
[1] = 101 kPa, Liquid
[2] = refractive index (Na D-line) (dimensionless); conditions: 101.33 kPa, Liquid
[3] = refractive index (Na D-line) (dimensionless); xn = mol fraction of the nth substance listed; conditions: 101 kPa, Liquid
[4] = xn = mol fraction of the nth substance listed; conditions: 101 kPa, Liquid

CCO [ethanol]
Conditions	mass density, 298.15 K [kg/m3]	mass density, 303.15 K [kg/m3]	mass density, 308.15 K [kg/m3]	refractive index, 298.15 K	refractive index, 303.15 K	refractive index, 308.15 K	speed of sound, 298.15 K [m/s]	viscosity, 298.15 K [mPa·s]	viscosity, 303.15 K [mPa·s]	viscosity, 308.15 K [mPa·s]
[1]	785.91	781.6	777.26	–	–	–	1161	1.073	0.971	0.889
[2]	–	–	–	1.3591	1.3572	1.355	–	–	–	–

CC(C)O [propan-2-ol]
Conditions	mass density, 298.15 K [kg/m3]	mass density, 303.15 K [kg/m3]	mass density, 308.15 K [kg/m3]	refractive index, 298.15 K	refractive index, 303.15 K	refractive index, 308.15 K	speed of sound, 298.15 K [m/s]	viscosity, 298.15 K [mPa·s]	viscosity, 303.15 K [mPa·s]	viscosity, 308.15 K [mPa·s]
[1]	781.36	777.09	772.75	–	–	–	1141	2.042	1.755	1.521
[2]	–	–	–	1.3745	1.3721	1.3702	–	–	–	–

CCCO [propan-1-ol]
Conditions	mass density, 298.15 K [kg/m3]	mass density, 303.15 K [kg/m3]	mass density, 308.15 K [kg/m3]	refractive index, 298.15 K	refractive index, 303.15 K	refractive index, 308.15 K	speed of sound, 298.15 K [m/s]	viscosity, 298.15 K [mPa·s]	viscosity, 303.15 K [mPa·s]	viscosity, 308.15 K [mPa·s]
[1]	799.96	795.93	791.86	–	–	–	1206	1.792	1.706	1.518
[2]	–	–	–	1.3826	1.3808	1.3782	–	–	–	–

CCCCCO [pentan-1-ol]
Conditions	mass density, 298.15 K [kg/m3]	mass density, 303.15 K [kg/m3]	mass density, 308.15 K [kg/m3]	refractive index, 298.15 K	refractive index, 303.15 K	refractive index, 308.15 K	speed of sound, 298.15 K [m/s]	viscosity, 298.15 K [mPa·s]	viscosity, 303.15 K [mPa·s]	viscosity, 308.15 K [mPa·s]
[1]	810.92	807.23	803.52	–	–	–	1286	3.403	2.959	2.581
[2]	–	–	–	1.4073	1.405	1.4032	–	–	–	–

CC(C)CCO [3-methylbutan-1-ol]
Conditions	mass density, 298.15 K [kg/m3]	mass density, 303.15 K [kg/m3]	mass density, 308.15 K [kg/m3]	refractive index, 298.15 K	refractive index, 303.15 K	speed of sound, 298.15 K [m/s]	viscosity, 298.15 K [mPa·s]	viscosity, 303.15 K [mPa·s]
[1]	807.2	803.45	791.86	–	–	1241	3.835	3.261
[2]	–	–	–	1.405	1.403	–	–	–

COc1ccccc1 [anisole]
Conditions	mass density, 298.15 K [kg/m3]	mass density, 303.15 K [kg/m3]	mass density, 308.15 K [kg/m3]	refractive index, 298.15 K	refractive index, 303.15 K	refractive index, 308.15 K	speed of sound, 298.15 K [m/s]	viscosity, 298.15 K [mPa·s]	viscosity, 303.15 K [mPa·s]	viscosity, 308.15 K [mPa·s]
[1]	989.15	984.45	979.73	–	–	–	1412	0.988	0.913	0.854
[2]	–	–	–	1.5137	1.5113	1.5088	–	–	–	–

CC(C)CCO [3-methylbutan-1-ol] + COc1ccccc1
Conditions	mass density, [4] [kg/m3]	refractive index, [3]	speed of sound, [4] [m/s]	viscosity, [4] [mPa·s]
298.15 K, x2 = 0	807.2	1.405	1241	3.835
298.15 K, x2 = 0.103	825.87	1.4159	1258	2.766
298.15 K, x2 = 0.2001	843.32	1.4269	1275	2.153
298.15 K, x2 = 0.3022	861.74	1.4378	1292	1.736
298.15 K, x2 = 0.3995	879.31	1.4487	1309	1.43
298.15 K, x2 = 0.4944	896.5	1.4579	1327	1.254
298.15 K, x2 = 0.5995	915.66	1.4688	1344	1.136
298.15 K, x2 = 0.6915	932.47	1.4797	1361	1.046
298.15 K, x2 = 0.8022	952.8	1.4906	1378	1.005
298.15 K, x2 = 0.9044	971.6	1.5015	1394	0.956
303.15 K, x2 = 0	803.45	1.403	–	3.261
303.15 K, x2 = 0.103	821.94	1.4138	–	2.408
303.15 K, x2 = 0.2001	839.25	1.4247	–	1.885
303.15 K, x2 = 0.3022	857.55	1.4355	–	1.544
303.15 K, x2 = 0.3995	875.01	1.4463	–	1.253
303.15 K, x2 = 0.4944	892.11	1.4575	–	1.135
303.15 K, x2 = 0.5995	911.16	1.468	–	1.03
303.15 K, x2 = 0.6915	929.01	1.4788	–	0.956
303.15 K, x2 = 0.8022	948.15	1.4896	–	0.938
303.15 K, x2 = 0.9044	966.9	1.5005	–	0.881
308.15 K, x2 = 0	791.86	–	–	–
308.15 K, x2 = 0.1036	808.48	1.3966	–	1.242
308.15 K, x2 = 0.2003	827.18	1.4129	–	1.078
308.15 K, x2 = 0.3055	848.11	1.4287	–	0.961
308.15 K, x2 = 0.4053	867.53	1.4426	–	0.879
308.15 K, x2 = 0.5096	888.55	1.4542	–	0.838
308.15 K, x2 = 0.6015	906.1	1.4673	–	0.821
308.15 K, x2 = 0.7071	924.94	1.4793	–	0.802
308.15 K, x2 = 0.8023	942.78	1.4897	–	0.795
308.15 K, x2 = 0.9044	960.74	1.499	–	0.792

CCCCO [butan-1-ol]
Conditions	mass density, 298.15 K [kg/m3]	mass density, 303.15 K [kg/m3]	mass density, 308.15 K [kg/m3]	refractive index, 298.15 K	refractive index, 303.15 K	refractive index, 308.15 K	speed of sound, 298.15 K [m/s]	viscosity, 298.15 K [mPa·s]	viscosity, 303.15 K [mPa·s]	viscosity, 308.15 K [mPa·s]
[1]	806.12	802.28	798.41	–	–	–	1246	2.585	2.284	1.981
[2]	–	–	–	1.3968	1.3944	1.3923	–	–	–	–

CCCCO [butan-1-ol] + COc1ccccc1
x2 = 0
Conditions	mass density, 298.15 K [kg/m3]	mass density, 303.15 K [kg/m3]	mass density, 308.15 K [kg/m3]	refractive index, 298.15 K	refractive index, 303.15 K	refractive index, 308.15 K	speed of sound, 298.15 K [m/s]	viscosity, 298.15 K [mPa·s]	viscosity, 303.15 K [mPa·s]	viscosity, 308.15 K [mPa·s]
[3]	–	–	–	1.3968	1.3944	1.3923	–	–	–	–
[4]	806.12	802.28	798.41	–	–	–	1246	2.585	2.284	1.981

COc1ccccc1 [anisole] + CC(C)O
Conditions	mass density, 298.15 K [kg/m3]	mass density, 303.15 K [kg/m3]	mass density, 308.15 K [kg/m3]	refractive index, 298.15 K	refractive index, 303.15 K	refractive index, 308.15 K	speed of sound, 298.15 K [m/s]	viscosity, 298.15 K [mPa·s]	viscosity, 303.15 K [mPa·s]	viscosity, 308.15 K [mPa·s]
[3], x1 = 0.0964	–	–	–	1.3925	1.3901	1.3879	–	–	–	–
[3], x1 = 0.1995	–	–	–	1.4115	1.4075	1.4064	–	–	–	–
[3], x1 = 0.2995	–	–	–	1.4275	1.4244	1.4226	–	–	–	–
[3], x1 = 0.3965	–	–	–	1.4427	1.4399	1.438	–	–	–	–
[3], x1 = 0.4947	–	–	–	1.4571	1.4535	1.451	–	–	–	–
[3], x1 = 0.5932	–	–	–	1.4701	1.467	1.465	–	–	–	–
[3], x1 = 0.6966	–	–	–	1.482	1.4793	1.4763	–	–	–	–
[3], x1 = 0.8069	–	–	–	1.495	1.4923	1.4884	–	–	–	–
[3], x1 = 0.9052	–	–	–	1.5049	1.5018	1.4999	–	–	–	–
[3], x1 = 1	–	–	–	1.5137	1.5113	1.5088	–	–	–	–
[4], x1 = 0.0964	809.04	804.55	799.99	–	–	–	1168	1.526	1.335	1.178
[4], x1 = 0.1995	836.66	832.04	827.34	–	–	–	1195	1.236	1.101	0.988
[4], x1 = 0.2995	861.3	856.56	851.78	–	–	–	1223	1.111	1	0.906
[4], x1 = 0.3965	882.77	877.97	873.12	–	–	–	1250	1.019	0.923	0.838
[4], x1 = 0.4947	903.09	898.25	893.38	–	–	–	1277	0.959	0.872	0.798
[4], x1 = 0.5932	921.89	917.04	912.14	–	–	–	1304	0.942	0.864	0.792
[4], x1 = 0.6966	940.52	935.67	930.78	–	–	–	1331	0.91	0.837	0.775
[4], x1 = 0.8069	958.9	954.07	949.22	–	–	–	1358	0.879	0.81	0.742
[4], x1 = 0.9052	974.58	969.52	965.01	–	–	–	1384	0.847	0.783	0.72
[4], x1 = 1	989.15	984.45	979.73	–	–	–	1412	0.988	0.913	0.854
